Laboratory results from patent EP4810040A2, “INHIBITORS OF APOL1 AND METHODS OF USING SAME” (priority 2020, dated 2022).

Target: T1, APOL1 G1 (Homo sapiens, UniProt O14791, I384M/S342G)
T1 sequence (O14791 28-398 S342G/I384M): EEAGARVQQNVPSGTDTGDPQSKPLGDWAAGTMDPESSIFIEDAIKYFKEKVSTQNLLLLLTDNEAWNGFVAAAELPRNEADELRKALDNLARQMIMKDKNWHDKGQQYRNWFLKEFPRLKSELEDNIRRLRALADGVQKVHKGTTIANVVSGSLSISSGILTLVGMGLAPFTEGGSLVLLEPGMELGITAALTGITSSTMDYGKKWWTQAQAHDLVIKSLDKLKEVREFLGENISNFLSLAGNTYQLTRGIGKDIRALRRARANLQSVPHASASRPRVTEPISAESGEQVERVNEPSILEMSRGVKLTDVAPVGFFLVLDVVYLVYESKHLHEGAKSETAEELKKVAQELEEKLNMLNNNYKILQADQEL
Test: MultiTox-Fluor Multiplex Cytotoxicity Assay, tet-inducible APOL1 G1 T-REx-HEK293 cells
Type: cell-based
Design: expressed in transfected cells; host or cells: T-REx HEK293, clone G1 DC3.25 (pAAVS1-Puro-APOL1 G1)
Settings: for IC90: HEK293, Multi-Tox Assay, APOL1 variant (G0/G1/G2) of the HEK293 cells not given, read-out: Multi-Tox Assay IC90; for Multi-Tox Assay Max Activity (%): APOL1 variant not given
How it was run: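 Over 24 h at 37 °C, compounds (10-point 3-fold series from 10 µM, duplicate) were co-incubated with 50 ng/mL tetracycline inducing APOL1 G1 in T-REx-HEK293 cells. Viability/cytotoxicity measured by MultiTox-Fluor as dead-to-live fluorescence ratio, expressed as percent of control between uninduced and induced wells and fitted.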

Compound	IC90	Multi-Tox Assay Max Activity (%)
C[C@H]1C[C@@]2(C[C@@H](c3cn(Cc4cccc(O)c4)nn3)N1)OC[C@@H](O)c1cc(Cl)sc12 [Compound 279]	50 to 500 nM	97.0%
C[C@H]1C[C@@]2(C[C@@H](c3cn(Cc4cccnn4)nn3)N1)OC[C@@H](O)c1cc(Cl)sc12 [Compound 280]	50 to 500 nM	
C[C@H]1C[C@@]2(C[C@@H](c3cn(CC(O)c4ccccc4)nn3)N1)OC[C@@H](O)c1cc(Cl)sc12 (stereo partly drawn) [Compound 281]	50 to 500 nM	
COCCn1cc([C@@H]2C[C@]3(C[C@H](C)N2)OC[C@@H](O)c2cc(Cl)sc23)nn1 [Compound 282]	50 to 500 nM	
C[C@H]1C[C@@]2(C[C@@H](c3cn(CC(F)F)nn3)N1)OC[C@@H](O)c1cc(Cl)sc12 [Compound 283]	50 to 500 nM	101.0%
CCC(O)Cn1cc([C@@H]2C[C@]3(C[C@H](C)N2)OC[C@@H](O)c2cc(Cl)sc23)nn1 (stereo partly drawn) [Compound 284]	50 to 500 nM	101.0%
Cc1c(Cn2cc([C@@H]3C[C@]4(C[C@H](C)N3)OC[C@@H](O)c3cc(Cl)sc34)nn2)cnn1C [Compound 285]	50 to 500 nM	98.0%
C[C@H]1C[C@@]2(C[C@@H](c3cn(CCC#N)nn3)N1)OC[C@@H](O)c1cc(Cl)sc12 [Compound 286]	50 to 500 nM	98.0%
CC(C)N1CC(Cn2cc([C@@H]3C[C@]4(C[C@H](C)N3)OC[C@@H](O)c3cc(Cl)sc34)nn2)CC1=O (stereo partly drawn) [Compound 287]	50 to 500 nM	96.0%
C[C@H]1C[C@@]2(C[C@@H](c3cn(CCC(N)=O)nn3)N1)OC[C@@H](O)c1cc(Cl)sc12 [Compound 288]	50 to 500 nM	97.0%
C[C@H]1C[C@@]2(C[C@@H](c3cn(CC4(F)CCOCC4)nn3)N1)OC[C@@H](O)c1cc(Cl)sc12 [Compound 289]	> 500 nM	83.0%
CCn1cc(Cn2cc([C@@H]3C[C@]4(C[C@H](C)N3)OC[C@@H](O)c3cc(Cl)sc34)nn2)cn1 [Compound 290]	50 to 500 nM	
C[C@H]1C[C@@]2(C[C@@H](c3cn(Cc4cocn4)nn3)N1)OC[C@@H](O)c1cc(Cl)sc12 [Compound 291]	50 to 500 nM	100.0%
C[C@H]1C[C@@]2(C[C@@H](c3cn(Cc4ccccn4)nn3)N1)OC[C@@H](O)c1cc(Cl)sc12 [Compound 292]	50 to 500 nM	
COc1cc(F)cc(Cn2cc([C@@H]3C[C@]4(C[C@H](C)N3)OC[C@@H](O)c3cc(Cl)sc34)nn2)c1 [Compound 293]	< 50 nM	100.0%
Cc1ccc(Cn2cc([C@@H]3C[C@]4(C[C@H](C)N3)OC[C@@H](O)c3cc(Cl)sc34)nn2)nc1 [Compound 294]	50 to 500 nM	100.0%
COc1ccc(Cn2cc([C@@H]3C[C@]4(C[C@H](C)N3)OC[C@@H](O)c3cc(Cl)sc34)nn2)cc1 [Compound 295]	50 to 500 nM	
Cc1cc(Cn2cc([C@@H]3C[C@]4(C[C@H](C)N3)OC[C@@H](O)c3cc(Cl)sc34)nn2)ccn1 [Compound 296]	50 to 500 nM	
Cc1nc(Cn2cc([C@@H]3C[C@]4(C[C@H](C)N3)OC[C@@H](O)c3cc(Cl)sc34)nn2)oc1C [Compound 297]	50 to 500 nM	
C[C@H]1C[C@@]2(C[C@@H](c3cn(Cc4ncc(F)cc4F)nn3)N1)OC[C@@H](O)c1cc(Cl)sc12 [Compound 298]	> 500 nM	95.0%
C[C@H]1C[C@@]2(C[C@@H](c3cn(CCOc4ccccc4F)nn3)N1)OC[C@@H](O)c1cc(Cl)sc12 [Compound 301]	< 50 nM	
C[C@H]1C[C@@]2(C[C@@H](c3cn(Cc4ccc(O)cc4)nn3)N1)OCC(F)(F)c1cc(Cl)sc12 [Compound 302]	50 to 500 nM	94.0%
Cc1cccc(OCC(O)Cn2cc([C@@H]3C[C@]4(C[C@H](C)N3)OCC(F)(F)c3cc(Cl)sc34)nn2)c1 (stereo partly drawn) [Compound 303]	50 to 500 nM	
